We go through four compounds from patent publication US20230200390A1, “SELECTIVE HERBICIDES BASED ON SUBSTITUTED ISOXAZOLIN CARBOXAMIDES AND MEFENPYR-DIETHYL” (BAYER AKTIENGESELLSCHAFT, priority 2020, published 2023).

Structures are written as SMILES.

What all share (assay type): in vivo
Test [1] has as its system spring wheat, TRZAS Triso. Put plainly: Treatment 1 day before: safener applied one day before herbicide, crop damage. Particulars: 21 DAT. An excerpt: (§1) Seeds of crops (spring wheat, TRZAS; spring barley, HORVS; maize, ZEAMA) were placed in sandy loam soil in pots of a diameter of 7-8 cm, covered with soil, and cultivated in a greenhouse under good growth conditions until plants were at the 1-3 leaf stage (BBCH 11-13). For split safener and herbicide treatment, first the safener was applied followed by the herbicide treatment on the following day. The safener and herbicides were formulated as WP and sprayed onto the green parts of the plants as an aqueous suspension at an equivalent water application rate of 300 l/ha, with addition of wetting agent and adjuvants (e.g. Mero, 1.5 l/ha; ammonium sulphate, 2 kg/ha). An equivalent set of plants was treated with the herbicides but without the prior safener treatment.
(§2) After application, the test plants were kept in the greenhouse under good growth conditions. 10 and 21 days after treatment (DAT) with the herbicide, % crop damage observed on the treated plants was scored visually in comparison to control plants that had not received any safener or herbicide treatment.

Test [2] concerns spring barley, HORVS Montoya. Described as above.
Excerpt: as §1, §2

In test [3] the test system is spring wheat, TRZAS Triso. As to the kind of experiment: Tank-mix; post-emergence: crop damage by herbicide with/without safener mefenpyr-diethyl. Particulars: 21 DAT. The gist of the method:
(§3)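 Greenhouse-grown spring wheat and barley treated post-emergence at 1–3-leaf stage with herbicide alone or tank-mixed with safener, sprayed at various dosages in 300 l/ha water. Crop injury scored visually 1–3 weeks after treatment as % vs untreated (0 none, 100 complete kill).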

The test system of test [4] is spring barley, HORVS Montoya. The description is as above. The conditions noted are these: for HER effect + SAF / Reduction [%] / Reduction [Difference]: HER 48 g a.i./ha + mefenpyr-diethyl 100 g a.i./ha; for HER effect: herbicide alone 48 g a.i./ha. A digest of the protocol: as §3
Test [5] deals with spring wheat, TRZAS Triso. As to the kind of experiment: Seed treatment with safener; post-emergence herbicide, crop damage. The conditions noted are these: 21 DAT; for HER effect + SAF [%] (crop damage) / Reduction [%] / Reduction [Difference]: mefenpyr-diethyl 0.5 g a.i./kg seed; for HER effect [%] (crop damage, herbicide without safener): no safener. A digest of the protocol: (§4)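 Wheat and barley seeds were coated with safener (g a.i./kg seed) in a slurry prediluted with milk, then sown and grown to BBCH 12. WP herbicides with 1 l/ha MERO in 300 l/ha water were sprayed post-emergence, with untreated-seed plants as reference. Crop damage (%) was scored visually at 10 and 21 DAT.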

The subject of test [6] is spring barley, HORVS Montoya. The description is as above. Particulars: 21 DAT; for HER effect + SAF / Reduction [%] / Reduction [Difference]: mefenpyr-diethyl 0.5 g a.i./kg seed. The gist of the method:
as §4

[7] abbreviates: HER 100 g a.i./ha, mefenpyr-diethyl 50 g a.i./ha 1 day before.
Setting [8] is: HER 200 g a.i./ha, mefenpyr-diethyl 50 g a.i./ha 1 day before.
The mark [9] stands for this setting: HER 25 g a.i./ha, mefenpyr-diethyl 50 g a.i./ha 1 day before, 21 DAT.
Setting [10] is: HER 50 g a.i./ha, mefenpyr-diethyl 50 g a.i./ha 1 day before, 21 DAT.
Where [11] appears, read: herbicide alone 25 g a.i./ha, 21 DAT.
Where [12] appears, read: HER 4 g a.i./ha + mefenpyr-diethyl 50 g a.i./ha.
[13] abbreviates: HER 16 g a.i./ha + mefenpyr-diethyl 100 g a.i./ha.
[14] abbreviates: HER 25 g a.i./ha, mefenpyr-diethyl 50 g a.i./ha 1 day before.
Setting [15] is: HER 50 g a.i./ha, mefenpyr-diethyl 50 g a.i./ha 1 day before.
[16] abbreviates: HER 48 g a.i./ha post-emergence.
The mark [17] stands for this setting: herbicide alone 48 g a.i./ha post-emergence.
Where [18] appears, read: HER 100 g a.i./ha, mefenpyr-diethyl 100 g a.i./ha 1 day before.
Where [19] appears, read: HER 200 g a.i./ha, mefenpyr-diethyl 100 g a.i./ha 1 day before.
Where [20] appears, read: HER 100 g a.i./ha, mefenpyr-diethyl 100 g a.i./ha 1 day before, 10 DAT.
[21] abbreviates: HER 50 g a.i./ha, mefenpyr-diethyl 50 g a.i./ha 1 day before, 10 DAT.
The mark [22] stands for this setting: HER 100 g a.i./ha, mefenpyr-diethyl 50 g a.i./ha 1 day before, 21 DAT.
[23] abbreviates: HER 12 g a.i./ha post-emergence.

`CC1(C(=O)NC2C=CC(C(=O)N3CCCCO3)C2)CC(c2cc(F)cc(F)c2)=NO1` (mixture of isomers) [Example 1.46]: the “HER effect + SAF” value is 5% in test [1] (setting [7]), 5% in test [1] (setting [8]), 10% in test [2] (setting [9]) and 20% in test [2] (setting [10]). Further, the “Reduction [%]” value in test [1] (setting [7]) came out at 92%; in test [1] (setting [8]), 94%; in test [2] (setting [9]) it was 78%; in test [2] (setting [10]), 69%. In addition, the “Reduction [Difference]” value turned out to be 55 in test [1] (setting [7]), 75 in test [1] (setting [8]), 35 in test [2] (setting [9]) and 45 in test [2] (setting [10]). Besides, the HER effect in test [1] (herbicide alone 100 g a.i./ha) stood at 60%; in test [1] (herbicide alone 200 g a.i./ha), 80%; in test [2] (setting [11]) it was 45%; in test [2] (herbicide alone 50 g a.i./ha, 21 DAT), 65%.

Consider `CC1(C(=O)NC2C=CC(C(=O)OCCCl)C2)CC(c2cc(F)cc(F)c2)=NO1` (mixture of isomers) [Example 1.47], for which the “HER effect + SAF” value in test [3] (setting [12]) is 10%; in test [3] (setting [13]), 20%; in test [4] (21 DAT) it was 60%; in test [1] (setting [14]) it was 35%; in test [1] (setting [15]), 60%; in test [2] (setting [9]), 40%. Also, in test [6] (setting [16]), the “HER effect + SAF” value was 20%. Further, the “Reduction [%]” value is 67% in test [3] (setting [12]); 75% in test [3] (setting [13]); 29% in test [4] (21 DAT); 53% in test [1] (setting [14]); 25% in test [1] (setting [15]); 33% in test [2] (setting [9]). For the same compound, the “Reduction [%]” value in test [5] (HER dose 4 g a.i./ha) is given as 100%; in test [5] (HER dose 16 g a.i./ha) it was 88%; in test [6] (setting [16]), 76%. Also, the “Reduction [Difference]” value in test [3] (setting [12]) was 20; in test [3] (setting [13]), 60; in test [4] (21 DAT) it was 25; in test [1] (setting [14]), 40; in test [1] (setting [15]) it was 20; in test [2] (setting [9]), 20. The figures for the “Reduction [Difference]” value in test [5] (HER dose 4 g a.i./ha), in test [5] (HER dose 16 g a.i./ha) and in test [6] (setting [16]) were 30, 70 and 65, respectively. Moreover, the HER effect in test [3] (herbicide alone 4 g a.i./ha) turned out to be 30%; in test [3] (herbicide alone 16 g a.i./ha) it was 80%; in test [4] (21 DAT), 85%; in test [1] (herbicide alone 25 g a.i./ha), 75%; in test [1] (herbicide alone 50 g a.i./ha), 80%; in test [2] (setting [11]), 60%. The same compound returned an HER effect in test [6] (setting [17]) of 85%. For the same compound, the “HER effect + SAF [%] (crop damage)” value is recorded as 0% in test [5] (HER dose 4 g a.i./ha) and 10% in test [5] (HER dose 16 g a.i./ha). Also, the “HER effect [%] (crop damage, herbicide without safener)” value in test [5] (HER dose 4 g a.i./ha) was 30%; in test [5] (HER dose 16 g a.i./ha) it was 80%.

For `CCOC(=O)C1C=CC(NC(=O)C2(C(F)(F)F)CC(c3ccccc3)=NO2)C1` (stereo not shown) [Example 1.9], the “HER effect + SAF” value in test [1] (setting [18]) came out at 20%; in test [1] (setting [19]), 25%; in test [2] (setting [20]) it was 20%. The “Reduction [%]” value in test [1] (setting [18]) is on record as 67%; in test [1] (setting [19]) it was 64%; in test [2] (setting [20]), 50%. Further, the “Reduction [Difference]” value in test [1] (setting [18]) is listed as 40; in test [1] (setting [19]), 45; in test [2] (setting [20]) it was 20. For the same compound, the HER effect was determined as 60% in test [1] (herbicide alone 100 g a.i./ha); 70% in test [1] (herbicide alone 200 g a.i./ha); 40% in test [2] (herbicide alone 100 g a.i./ha, 10 DAT).

As to `CCOC(=O)C1C=CC(NC(=O)C2(C(F)(F)F)CC(c3cc(OC)cc(OC)c3)=NO2)C1` (mixture of isomers) [Example 1.12], the “HER effect + SAF” value is 0% in test [4] (10 DAT); 20% in test [1] (setting [8]); 20% in test [2] (setting [21]); 50% in test [2] (setting [22]); 0% in test [6] (setting [23]); 20% in test [6] (setting [16]). Moreover, the “Reduction [%]” value in test [4] (10 DAT) is 100%; in test [1] (setting [8]) it was 50%; in test [2] (setting [21]), 64%; in test [2] (setting [22]) it was 29%; in test [6] (setting [23]) it was 100%; in test [6] (setting [16]) it was 60%. The “Reduction [Difference]” value in test [4] (10 DAT) is 60; in test [1] (setting [8]), 20; in test [2] (setting [21]), 35; in test [2] (setting [22]), 20; in test [6] (setting [23]), 20; in test [6] (setting [16]), 30. Besides, the HER effect in test [4] (10 DAT) was found to be 60%; in test [1] (herbicide alone 200 g a.i./ha), 40%; in test [2] (herbicide alone 50 g a.i./ha, 10 DAT), 55%; in test [2] (herbicide alone 100 g a.i./ha, 21 DAT), 70%; in test [6] (herbicide alone 12 g a.i./ha post-emergence), 20%; in test [6] (setting [17]), 50%.
